Data reported in patent US20130237550A1, “ARYLVINYLAZACYCLOALKANE COMPOUNDS FOR CONSTIPATION” (TARGACEPT, INC., priority 2010, published 2013).

What was measured:
[1] = tested on: Taxol®-induced neuropathy; assay: Taxol-induced (chemotherapy induced) neuropathy model; type: in vivo
subjects with IBS-C = assay: Randomized, double-blind, placebo controlled proof of principle study in IBS-C; type: in vivo, human
Description: A randomized, double-blind, placebo controlled, parallel group, proof of principle study to evaluate the safety, tolerability, and efficacy of Compound A in the treatment of Constipation-Predominant Irritable Bowel Syndrome was conducted.
The objectives of the study include the following: to assess the efficacy of Compound A in the treatment of Constipation Predominant Irritable Bowel Syndrome (IBS-C); and to assess the safety, tolerability and pharmacokinetic profile of Compound A in subjects with IBS-C when administered as a enteric coated capsule for a period of 28 days.
Subjects with constipation predominant irritable bowel syndrome (IBS-C) defined by: the ROME III criteria as: recurrent abdominal pain or discomfort at least 3 days per month, during the previous 3 months that is associated with 2 or more of the following: (1) relieved by defecation; (2) onset associated with a change in stool frequency; and/or (3) onset associated with a change in stool appearance.
Treatment included 5 mg daily (as Enteric Coated capsule) for 14 days followed by 5 mg BID for another 14 days. One endpoint includes global IBS symptom relief (7-point scale). Another endpoint includes bowel movement frequency, pain, bloating, straining, stool consistency, and frequency of rescue medication (laxative). Statistically, a was set to 0.1.

[2] = biological target: α3β4 nueronal nicotinic receptors (Homo sapiens, UniProt P30926+P32297); assay: Agonism at α3β4 neuronal nicotinic receptors (statement)
[3] = biological target: α4β2 nueronal nicotinic receptors (Homo sapiens, UniProt P17787+P43681); assay: Agonism at α4β2 neuronal nicotinic receptors (statement)
normal healthy subjects = assay: Single (SRD) and multiple rising dose (MRD) studies in normal healthy subjects; type: in vivo, human
Description: (§1) In the MRD study, following doses 10 mg administered 4 times daily, nausea and vomiting typically occurred within 30 min of dosing—prior to significant systemic absorption. Diarrhea was typically observed more than 5 hours following dosing, when systemic concentrations were approximately 20% of Cmax values. […] Such pharmacodynamic GI motility responses appear to correlate primarily with local effects (possibly agonism of α3β4 receptors located on enterochromaffin cells) rather than systemic plasma concentrations.

[4] = as above; type: in vivo, human; conditions: oral; human plasma; read-out: systemic (plasma) half-life
Description: as §1

[5] = tested on: rat Streptozotocin-induced diabetic neuropathy model; assay: Streptozotocin-induced diabetic neuropathy (allodynia) model; type: in vivo; conditions: STZ rat; for pain sensitivity (allodynia testing of the hindpaw): Week 6, versus vehicle-treated animals
Text: Preclinically, in two animal models of neuropathic pain, repeat administration of Compound A produced significant analgesia. […] With reference to WO 08/157,365, the rat Streptozotocin-induced diabetic neuropathy model is a clinically relevant model of diabetic neuropathy, which replicates elements of the human situation diabetic condition such as high glucose levels, neuropathic pain in the extremities, and generally poor health.

Sequence of α4β2 nueronal nicotinic receptors (P43681 29-627 limits assumed): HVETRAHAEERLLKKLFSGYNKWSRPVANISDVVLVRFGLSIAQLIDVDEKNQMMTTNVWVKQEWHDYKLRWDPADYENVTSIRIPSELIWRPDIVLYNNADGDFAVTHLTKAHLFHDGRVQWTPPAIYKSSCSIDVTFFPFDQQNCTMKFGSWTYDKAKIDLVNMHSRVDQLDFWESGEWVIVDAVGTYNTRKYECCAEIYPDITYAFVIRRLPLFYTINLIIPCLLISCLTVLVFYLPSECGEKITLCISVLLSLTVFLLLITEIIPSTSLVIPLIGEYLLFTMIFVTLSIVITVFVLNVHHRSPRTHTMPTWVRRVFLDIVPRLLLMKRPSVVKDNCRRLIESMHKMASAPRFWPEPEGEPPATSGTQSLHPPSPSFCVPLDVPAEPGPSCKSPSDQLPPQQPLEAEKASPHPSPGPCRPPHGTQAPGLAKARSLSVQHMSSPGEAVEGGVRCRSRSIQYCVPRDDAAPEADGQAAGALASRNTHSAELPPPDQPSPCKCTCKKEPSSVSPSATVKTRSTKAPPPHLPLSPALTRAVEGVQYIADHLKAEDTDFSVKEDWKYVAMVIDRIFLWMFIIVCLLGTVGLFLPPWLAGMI
Sequence of α4β2 nueronal nicotinic receptors (P17787 26-502): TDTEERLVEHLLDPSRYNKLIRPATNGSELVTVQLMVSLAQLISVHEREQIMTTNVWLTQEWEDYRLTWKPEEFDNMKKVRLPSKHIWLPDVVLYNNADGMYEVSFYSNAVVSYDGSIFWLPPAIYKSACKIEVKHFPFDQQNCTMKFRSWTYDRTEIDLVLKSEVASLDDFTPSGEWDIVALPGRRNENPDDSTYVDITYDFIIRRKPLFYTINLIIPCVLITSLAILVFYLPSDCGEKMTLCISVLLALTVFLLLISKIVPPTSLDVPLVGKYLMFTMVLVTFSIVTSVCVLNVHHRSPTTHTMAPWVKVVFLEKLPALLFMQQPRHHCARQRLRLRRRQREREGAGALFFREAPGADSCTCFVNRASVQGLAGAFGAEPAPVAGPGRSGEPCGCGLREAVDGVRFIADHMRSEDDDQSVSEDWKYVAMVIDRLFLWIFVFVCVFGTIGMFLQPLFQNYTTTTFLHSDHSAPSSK
Sequence of α3β4 nueronal nicotinic receptors (P32297 32-505): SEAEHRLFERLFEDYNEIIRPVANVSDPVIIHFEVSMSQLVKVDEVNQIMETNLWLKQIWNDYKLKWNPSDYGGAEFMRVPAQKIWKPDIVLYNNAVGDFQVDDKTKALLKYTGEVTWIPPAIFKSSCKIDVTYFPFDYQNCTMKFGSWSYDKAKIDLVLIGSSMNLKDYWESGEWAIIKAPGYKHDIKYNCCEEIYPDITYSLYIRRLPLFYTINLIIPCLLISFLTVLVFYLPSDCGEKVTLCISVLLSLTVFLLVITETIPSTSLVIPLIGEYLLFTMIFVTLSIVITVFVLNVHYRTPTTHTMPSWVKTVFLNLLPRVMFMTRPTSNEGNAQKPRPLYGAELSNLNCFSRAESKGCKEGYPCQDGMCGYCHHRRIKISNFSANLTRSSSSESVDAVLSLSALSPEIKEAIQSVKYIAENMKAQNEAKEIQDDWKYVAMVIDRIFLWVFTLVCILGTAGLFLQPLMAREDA
Sequence of α3β4 nueronal nicotinic receptors (P30926 22-498): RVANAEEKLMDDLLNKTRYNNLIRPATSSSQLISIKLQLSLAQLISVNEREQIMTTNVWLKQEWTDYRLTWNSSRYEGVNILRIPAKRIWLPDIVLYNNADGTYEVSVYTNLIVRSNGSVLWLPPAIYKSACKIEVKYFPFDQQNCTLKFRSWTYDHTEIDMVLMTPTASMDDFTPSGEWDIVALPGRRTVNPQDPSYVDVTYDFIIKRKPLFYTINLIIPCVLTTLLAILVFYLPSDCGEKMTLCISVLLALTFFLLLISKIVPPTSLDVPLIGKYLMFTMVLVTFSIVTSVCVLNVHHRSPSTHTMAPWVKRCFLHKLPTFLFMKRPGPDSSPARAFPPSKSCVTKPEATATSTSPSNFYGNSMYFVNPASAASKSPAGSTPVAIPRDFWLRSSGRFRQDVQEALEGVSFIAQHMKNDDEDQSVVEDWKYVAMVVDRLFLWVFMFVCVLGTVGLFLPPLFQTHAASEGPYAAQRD

Compound | analgesic effect (allodynia) ([1]; acutely administered) | analgesic properties (subjects with IBS-C; IBS-C subjects) | most commonly reported adverse events (subjects with IBS-C; IBS-C subjects, 28 days) | severity of adverse events (subjects with IBS-C; IBS-C subjects, 28 days) | tolerability (subjects with IBS-C; enteric coated capsule, 5 mg daily 14 days then 5 mg BID 14 days) | spontaneous bowel movements (SBM) (subjects with IBS-C; versus placebo, maintained over at least 1 month) | SBM relative to Tegaserod, Lubiprostone and Linaclotide (subjects with IBS-C; week 4, FIG. 2, comparator data from literature) | receptor activity type [2] | receptor activity type [3] | time of diarrhea after dosing (normal healthy subjects; MRD study, 10 mg 4 times daily) | time of nausea and vomiting after dosing (normal healthy subjects; MRD study, 10 mg 4 times daily) [min] | systemic concentration when diarrhea observed (normal healthy subjects; MRD study, more than 5 hours following dosing) | most commonly observed adverse events (normal healthy subjects; SRD and MRD studies, healthy subjects) | GI motility (normal healthy subjects; healthy human subjects) | half-life [4] [h] | blood glucose levels [5] | pain sensitivity (allodynia testing of the hindpaw) [5] | analgesic effect (allodynia) ([1]; chronically administered)
NCC1(CC(=O)O)CCCCC1 [Gabapentin, reference compound] | analgesic effect | – | – | – | – | – | – | – | – | – | – | – | – | – | – | – | – | –
C(=C\[C@H]1CCNC1)/c1cncnc1 [Compound A, (R)-5-((E)-2-pyrrolidin-3-ylvinyl)pyrimidine] | – | appears to lack analgesic properties | headache or gastrointestinal | mild to moderate | generally well tolerated | robust increases | compares favorably | agonist | agonist | more than 5 hours | ≤ 30 | approximately 20 % of Cmax values | nausea, vomiting and diarrhea | increase in GI motility | ≤ 1 | absence of any changes to blood glucose levels | significant reversal of this pain | analgesic effect
insulin: insulin-treated group in the STZ-rat model of diabetic neuropathy [reference compound] | – | – | – | – | – | – | – | – | – | – | – | – | – | – | – | reduced blood glucose levels | did not have significant improvement in pain sensitivity | –
